From patent publication US10874743B2, “IRAK degraders and uses thereof” (Kymera Therapeutics, Inc., priority 2017, dated 2020)

What was measured:
IRAK4 [1] = target: T1, IRAK4 (Homo sapiens, UniProt Q9NWZ3); assay: OCI-LY-10 MSD assay for IRAK4 DC50; format: cell-based; set-up: endogenous in cells; host or cells: OCI-LY10; conditions: OCI-LY10 cells, 4 hr incubation, concentration required to degrade 50% of protein
T1 sequence (Q9NWZ3 1-460): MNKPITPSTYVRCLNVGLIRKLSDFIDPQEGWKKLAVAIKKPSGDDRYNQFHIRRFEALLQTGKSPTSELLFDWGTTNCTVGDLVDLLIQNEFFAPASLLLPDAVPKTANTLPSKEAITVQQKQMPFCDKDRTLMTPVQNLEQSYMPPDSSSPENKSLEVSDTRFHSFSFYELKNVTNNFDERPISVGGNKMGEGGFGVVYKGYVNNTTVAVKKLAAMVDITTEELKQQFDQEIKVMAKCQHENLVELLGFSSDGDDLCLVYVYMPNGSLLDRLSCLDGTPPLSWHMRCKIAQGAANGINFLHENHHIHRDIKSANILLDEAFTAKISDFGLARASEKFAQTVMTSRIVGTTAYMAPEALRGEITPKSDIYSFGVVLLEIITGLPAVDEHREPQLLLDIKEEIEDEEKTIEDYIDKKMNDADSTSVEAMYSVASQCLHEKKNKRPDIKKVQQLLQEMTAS
How it was run: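 IRAK4 level was quantified by MSD electrochemiluminescence (anti-IRAK4 capture antibody, rabbit anti-IRAK4 detection antibody) in RIPA lysates of OCI-Ly10 cells. Cells had been treated with compound for 4 hr (8-point, 3-fold serial dilution). Remaining protein versus concentration was fitted to a sigmoidal curve to give DC50.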

IRAK4 [2] = target: T1, IRAK4; assay: OCI-LY-10 degradation assay (western blot, % IRAK4 degraded after 4 hours); format: cell-based; set-up: endogenous in cells; host or cells: OCI-LY10; conditions: OCI-LY10 cells, 4 hours; for OCI-LY10 % IRAK4 Degradation (0.01 uM): 0.01 uM compound; for OCI-LY10 % IRAK4 Degradation (0.1 uM): 0.1 uM compound; for OCI-LY10 % IRAK4 Degradation (1 uM): 1 uM compound
How it was run: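 IRAK4 loss after 4 h at 37° C was scored A (>50%), B (>20-50%) or C (<20%) from infrared western blots of RIPA lysates, 20-25 μg protein per lane. Compound was applied at 0.003-10 μM final to OCI-LY10 cells cultured in RPMI-1640 with 20% FBS and 55 μM 2-ME.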

SMILES: CN(CCOCCOCCCc1ccc2c(c1)C(=O)N(C1CCC(=O)NC1=O)C2=O)C(=O)c1ccc(-n2cc(NC(=O)c3coc(-c4ccnc(NCC5CC5)c4)n3)c(C(N)=O)n2)cc1 (stereo not drawn) [I-228]
- DC50 (IRAK4 [1]): < 50 nM
- OCI-LY10 % IRAK4 Degradation (0.01 uM) (IRAK4 [2]): A (>50% degradation)
- OCI-LY10 % IRAK4 Degradation (0.1 uM) (IRAK4 [2]): A (>50% degradation)
- OCI-LY10 % IRAK4 Degradation (1 uM) (IRAK4 [2]): A (>50% degradation)

SMILES: NC(=O)c1nn(-c2ccc(C(=O)NCCOCCOCCn3c(=O)n(C4CCC(=O)NC4=O)c4ccccc43)cc2)cc1NC(=O)c1coc(-c2ccnc(NCC(F)(F)F)c2)n1 (stereo not drawn) [I-231]
- DC50 (IRAK4 [1]): < 50 nM
- OCI-LY10 % IRAK4 Degradation (0.01 uM) (IRAK4 [2]): A (>50% degradation)
- OCI-LY10 % IRAK4 Degradation (0.1 uM) (IRAK4 [2]): A (>50% degradation)
- OCI-LY10 % IRAK4 Degradation (1 uM) (IRAK4 [2]): A (>50% degradation)

SMILES: NC(=O)c1nn(-c2ccc(C(=O)NCCOCCOCCOCCOCCCc3cccc4c3C(=O)N(C3CCC(=O)NC3=O)C4=O)cc2)cc1NC(=O)c1coc(-c2ccnc(NCC(F)(F)F)c2)n1 (stereo not drawn) [I-235]
- DC50 (IRAK4 [1]): 50 to 100 nM
- OCI-LY10 % IRAK4 Degradation (0.01 uM) (IRAK4 [2]): C (<20% degradation)
- OCI-LY10 % IRAK4 Degradation (0.1 uM) (IRAK4 [2]): A (>50% degradation)
- OCI-LY10 % IRAK4 Degradation (1 uM) (IRAK4 [2]): A (>50% degradation)

SMILES: NC(=O)c1nn(CCOCCOCCOCCOCCNc2cccc3c2C(=O)N(C2CCC(=O)NC2=O)C3=O)cc1NC(=O)c1coc(-c2ccnc(NCC3CC3)c2)n1 (stereo not drawn) [I-240]
- DC50 (IRAK4 [1]): > 1000 nM
- OCI-LY10 % IRAK4 Degradation (0.01 uM) (IRAK4 [2]): B (>20-50% degradation)
- OCI-LY10 % IRAK4 Degradation (0.1 uM) (IRAK4 [2]): B (>20-50% degradation)
- OCI-LY10 % IRAK4 Degradation (1 uM) (IRAK4 [2]): B (>20-50% degradation)

SMILES: Cc1cc(-c2nc(C(=O)Nc3cn(-c4ccc(C(=O)NCCOCCOCCNc5cccc6c5C(=O)N(C5CCC(=O)NC5=O)C6=O)cc4)nc3C(N)=O)co2)ccn1 (stereo not drawn) [I-241]
- DC50 (IRAK4 [1]): < 50 nM
- OCI-LY10 % IRAK4 Degradation (0.01 uM) (IRAK4 [2]): B (>20-50% degradation)
- OCI-LY10 % IRAK4 Degradation (0.1 uM) (IRAK4 [2]): A (>50% degradation)
- OCI-LY10 % IRAK4 Degradation (1 uM) (IRAK4 [2]): A (>50% degradation)

SMILES: O=C1CCC(N2C(=O)c3cccc(NCCNCCCCCNC(=O)c4ccc(-n5cc(NC(=O)c6coc(-c7ccnc(NC8CC8)c7)n6)c(C(F)F)n5)cc4)c3C2=O)C(=O)N1 (stereo not drawn) [I-242]
- DC50 (IRAK4 [1]): < 50 nM
- OCI-LY10 % IRAK4 Degradation (0.01 uM) (IRAK4 [2]): B (>20-50% degradation)
- OCI-LY10 % IRAK4 Degradation (0.1 uM) (IRAK4 [2]): A (>50% degradation)
- OCI-LY10 % IRAK4 Degradation (1 uM) (IRAK4 [2]): A (>50% degradation)

SMILES: Cn1c(=O)n(C2CCC(=O)NC2=O)c2ccc(CCCOCCOCCNC(=O)c3ccc(-n4cc(NC(=O)c5coc(-c6ccnc(NCC7CC7)c6)n5)c(C(F)F)n4)cc3)cc21 (stereo not drawn) [I-252]
- DC50 (IRAK4 [1]): < 50 nM
- OCI-LY10 % IRAK4 Degradation (0.01 uM) (IRAK4 [2]): B (>20-50% degradation)
- OCI-LY10 % IRAK4 Degradation (0.1 uM) (IRAK4 [2]): A (>50% degradation)
- OCI-LY10 % IRAK4 Degradation (1 uM) (IRAK4 [2]): A (>50% degradation)

SMILES: O=C1CCC(N2C(=O)c3cccc(CCCNC(=O)c4ccc(-n5cc(NC(=O)c6coc(-c7ccncc7)n6)c(C(F)F)n5)cc4)c3C2=O)C(=O)N1 (stereo not drawn) [I-255]
- DC50 (IRAK4 [1]): > 1000 nM
- OCI-LY10 % IRAK4 Degradation (0.01 uM) (IRAK4 [2]): C (<20% degradation)
- OCI-LY10 % IRAK4 Degradation (0.1 uM) (IRAK4 [2]): C (<20% degradation)
- OCI-LY10 % IRAK4 Degradation (1 uM) (IRAK4 [2]): C (<20% degradation)

SMILES: O=C1CCC(N2C(=O)c3cccc(CCCCCN4CCC(n5cc(NC(=O)c6coc(-c7ccnc(NCC8CC8)c7)n6)c(C(F)F)n5)CC4)c3C2=O)C(=O)N1 (stereo not drawn) [I-258]
- DC50 (IRAK4 [1]): > 1000 nM
- OCI-LY10 % IRAK4 Degradation (0.01 uM) (IRAK4 [2]): C (<20% degradation)
- OCI-LY10 % IRAK4 Degradation (0.1 uM) (IRAK4 [2]): B (>20-50% degradation)
- OCI-LY10 % IRAK4 Degradation (1 uM) (IRAK4 [2]): C (<20% degradation)
